Measured values from patent publication US20230310534A1, “QUENCHERS THAT SLOW, DECREASE, OR INHIBIT THE FORMATION OF CHEMIEXCITATION-INDUCED CYCLOBUTANE PYRIMIDINE DIMERS” (L'OREAL, priority 2017, published 2023).

Assays:
Assay type in all cases: biochemical
[1] = Melanin oxidation assay (peroxynitrite/melanin chemiluminescence quenching); details: peroxynitrite, melanin and DBAS in DMSO; measured at 150 seconds and 500 seconds
Excerpt: An easy and fast assay was developed to measure quenching of chemiluminescence from the triplet carbonyl of a cleaved dioxetane that was created when peroxynitrite (ONOO—) reacted with melanin. As such, it measured both triplet quenching and any scavenging activity that prevented the chemiexcitation reaction from starting. DMSO was used as a solvent for the entire reaction, DBAS to enhance the luminescence and a liquid scintillation counter set to single-photon mode to detect the luminescence signal.
In this assay, peroxynitrite, melanin, and DBAS were incubated in DMSO in the absence or presence of test agents, and light emission quenching (%) was measured at 150 seconds and 500 seconds (FIG. 1).

[2] = Peroxynitrite radical absorbance capacity test, dihydrorhodamine 123 indicator; details: activity grade 0-4
Procedure: Peroxynitrite radical absorbance capacity tests were conducted to measure the capacity of an antioxidant material to quench peroxynitrite. Dihydrorhodamine 123 was used as an indicator of peroxynitrite in tubo for peroxynitrite radical absorbance capacity tests with Varioskan Flush. […]

[3] = Superoxide radical absorbance capacity (SORAC) test, WST-1 probe; details: activity grade 0-4
Procedure: Superoxide radical absorbance capacity tests were conducted to measure the capacity of an antioxidant material to dismutate superoxide anion. The Varioskan Flush was employed to measure the superoxide dismutase-catalyzed dismutation of the superoxide anion in the presence of the absorbance probe, water-soluble tetrazolium salt (WST-1). The superoxide radical antioxidant (SORAC) assay is based on an inhibition assay and is suitable for evaluating superoxide dismutase or superoxide dismutase-like activities in samples.

Row | SMILES | light emission quenching (hit) [1] | Anti-peroxynitrite [2] | Anti-superoxide [3]
1 | O=c1oc2c(O)c(O)cc3c(=O)oc4c(O)c(O)cc1c4c23 [Ellagic acid] | showed a quenching effect | 4 | 2
2 | O=C(O[C@@H]1Cc2c(O)cc(O)cc2O[C@@H]1c1cc(O)c(O)c(O)c1)c1cc(O)c(O)c(O)c1 [Epigallocatechin Gallate] | showed a quenching effect | 4 | 4
3 | COc1cc(/C=C/C(=O)O)ccc1O [Ferulic Acid] | showed a quenching effect | 4 | 1
4 | CC1=C(/C=C/C(C)=C/C=C/C(C)=C/C=C/C=C(C)/C=C/C=C(C)/C=C/C2=C(C)CCCC2(C)C)C(C)(C)CCC1 [beta-carotene] | showed a quenching effect | – | –
5 | O=C(O)c1cccc(C(=O)O)n1 [dipicolinic acid] | showed a quenching effect | – | –
6 | C/C=C/C=C/C(=O)O [sorbic acid] | showed a quenching effect | – | –
7 | CC(C)=CCC/C(C)=C/CC/C(C)=C/CC/C=C(\C)CC/C=C(\C)CCC=C(C)C [squalene] | showed a quenching effect | – | –
